Test results as given in patent US6737383B1, “Herbicidal oxadiazolidines” (priority 1999, dated 2004).

Assays:
morningglory = test: Test B pre/postemergence morningglory; assay type: in vivo, Ipomoea hederacea
Summary of the method: (§1)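 Test chemicals in a non-phytotoxic solvent mixture with surfactant were sprayed preemergence onto planted seeds and postemergence onto plants 2 to 18 cm tall (1- to 4-leaf stage). After twelve to sixteen days in a greenhouse, injury was visually rated against untreated controls from 0 (no effect) to 10 (complete control).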

pigweed = test: Test B pre/postemergence pigweed; assay type: in vivo, Amaranthus retroflexus
Summary of the method: as §1

blackgrass = test: Test B pre/postemergence blackgrass; assay type: in vivo, Alopecurus myosuroides
Summary of the method: as §1

sugar beet = test: Test B pre/postemergence sugar beet; assay type: in vivo, Beta vulgaris; details: for Plant response rating, Sugarbeets: Rate 250 g/ha
Summary of the method: as §1

wild oat = test: Test B pre/postemergence wild oat; assay type: in vivo, Avena fatua; details: for Plant response rating, Wild oats: Rate 250 g/ha
Summary of the method: as §1

cocklebur = test: Test B pre/postemergence cocklebur; assay type: in vivo, Xanthium strumarium
Summary of the method: as §1

duck salad = test: Test B flood test duck salad; assay type: in vivo, Heteranthera limosa
Summary of the method: (§2)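 Read-out is a visual response score from 0 (no effect) to 10 (complete control), assigned by comparison with untreated controls. Treatment was applied at the 2-leaf stage, and plants stayed in the greenhouse for twelve to sixteen days before scoring.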

surinam grass = test: Test B pre/postemergence surinam grass; assay type: in vivo, Brachiaria decumbens
Summary of the method: as §1

smallflower flatsedge = test: Test B flood test smallflower flatsedge; assay type: in vivo, Cyperus difformis
Summary of the method: as §2

bedstraw = test: Test B pre/postemergence bedstraw; assay type: in vivo, Galium aparine
Summary of the method: as §1

giant foxtail = test: Test B pre/postemergence giant foxtail; assay type: in vivo, Setaria faberii
Summary of the method: as §1

crabgrass = test: Test B pre/postemergence crabgrass; assay type: in vivo, Digitaria sanguinalis
Summary of the method: as §1

purple nutsedge = test: Test B pre/postemergence purple nutsedge; assay type: in vivo, Cyperus rotundus
Summary of the method: as §1

rice = test: Test B flood test rice; assay type: in vivo, Oryza sativa
Summary of the method: as §2

corn = test: Test B pre/postemergence corn; assay type: in vivo, Zea mays
Summary of the method: as §1

soybean = test: Test B pre/postemergence soybean; assay type: in vivo, Glycine max
Summary of the method: as §1

[1] = Postemergence, Rate 125 g/ha, scale of 0 to 10 where 0 is no effect and 10 is complete control
[2] = Postemergence, Rate 250 g/ha, scale 0 to 10, 0 no effect, 10 complete control
[3] = Preemergence, Rate 62 g/ha, scale 0 to 10 (0 no effect, 10 complete control)
[4] = Preemergence, Rate 125 g/ha, scale 0 to 10 (0 no effect, 10 complete control)
[5] = Preemergence, Rate 250 g/ha, scale of 0 to 10 where 0 is no effect and 10 is complete control
[6] = Preemergence, Rate 500 g/ha, scale 0 to 10 (0 no effect, 10 complete control)
[7] = Rate 62 g/ha, Postemergence, scale of 0 to 10 where 0 is no effect and 10 is complete control
[8] = Rate 500 g/ha, Postemergence, scale 0 to 10, 0 no effect, 10 complete control
[9] = Rate 250 g/ha, Postemergence, scale 0 to 10, 0 is no effect, 10 is complete control
[10] = Preemergence, Rate 125 g/ha, 0 is no effect, 10 is complete control
[11] = Preemergence, scale of 0 to 10 where 0 is no effect and 10 is complete control
[12] = Postemergence, scale 0 to 10, 0 is no effect, 10 is complete control
[13] = Postemergence (flood test species), Rate 125 g/ha, scale of 0 to 10 where 0 is no effect and 10 is complete control
[14] = Rate 62 g/ha, Postemergence section, flood test species, scale of 0 to 10 where 0 is no effect and 10 is complete control
[15] = Rate 500 g/ha, listed under Postemergence (flood test species), scale 0 to 10, 0 no effect, 10 complete control
[16] = Postemergence, Rate 62 g/ha, scale 0 to 10, 0 is no effect, 10 is complete control
[17] = Rate 125 g/ha, Postemergence, scale 0 to 10, 0 no effect, 10 complete control
[18] = Rate 250 g/ha, Postemergence (flood test), scale 0 to 10, 0 is no effect, 10 is complete control

Structure (SMILES): CC(C)N(C(=O)n1oc(=O)n(C2CCCCC2)c1=O)c1ccccc1 [Compound 112]
- Morningglory plant response rating (morningglory; [1]): 10
- Morningglory plant response rating (morningglory; [2]): 10
- Morningglory plant response rating (morningglory; [3]): 0
- Plant response rating, Morningglory (morningglory; [4]): 2
- Plant response rating, Morningglory (morningglory; [5]): 2
- Morningglory plant response rating (morningglory; [6]): 2
- Morningglory plant response rating (morningglory; [7]): 8
- Morningglory plant response rating (morningglory; [8]): 10
- Redroot pigweed plant response rating (pigweed; [1]): 3
- Redroot pigweed plant response rating (pigweed; [3]): 0
- Plant response rating, Redroot pigweed (pigweed; [4]): 2
- Plant response rating, Redroot pigweed (pigweed; [5]): 7
- Redroot pigweed plant response rating (pigweed; [6]): 9
- Redroot pigweed plant response rating (pigweed; [7]): 2
- Plant response rating, Redroot pigweed (pigweed; [9]): 5
- Redroot pigweed plant response rating (pigweed; [8]): 5
- Blackgrass plant response rating (blackgrass; [1]): 4
- Blackgrass plant response rating (blackgrass; [2]): 5
- Blackgrass plant response rating (blackgrass; [3]): 0
- Plant response rating, Blackgrass (blackgrass; [4]): 0
- Plant response rating, Blackgrass (blackgrass; [5]): 2
- Blackgrass plant response rating (blackgrass; [6]): 5
- Blackgrass plant response rating (blackgrass; [7]): 0
- Blackgrass plant response rating (blackgrass; [8]): 7
- Sugarbeets plant response rating (sugar beet; [1]): 2
- Sugarbeets plant response rating (sugar beet; [3]): 0
- Sugarbeets plant response rating (0 to 10 scale) (sugar beet; [10]): 0
- Plant response rating, Sugarbeets (sugar beet; [11]): 0
- Sugarbeets plant response rating (sugar beet; [6]): 0
- Sugarbeets plant response rating (sugar beet; [7]): 2
- Plant response rating, Sugarbeets (sugar beet; [12]): 3
- Sugarbeets plant response rating (sugar beet; [8]): 3
- Wild oats plant response rating (wild oat; [1]): 0
- Wild oats plant response rating (wild oat; [3]): 0
- Wild oats plant response rating (0 to 10 scale) (wild oat; [10]): 0
- Plant response rating, Wild oats (wild oat; [11]): 2
- Wild oats plant response rating (wild oat; [6]): 6
- Wild oats plant response rating (wild oat; [7]): 0
- Plant response rating, Wild oats (wild oat; [12]): 0
- Wild oats plant response rating (wild oat; [8]): 1
- Cocklebur plant response rating (cocklebur; [1]): 1
- Cocklebur plant response rating (cocklebur; [2]): 2
- Cocklebur plant response rating (cocklebur; [3]): 0
- Plant response rating, Cocklebur (cocklebur; [4]): 0
- Plant response rating, Cocklebur (cocklebur; [5]): 0
- Cocklebur plant response rating (cocklebur; [6]): 0
- Cocklebur plant response rating (cocklebur; [7]): 0
- Cocklebur plant response rating (cocklebur; [8]): 2
- Ducksalad plant response rating (duck salad; [13]): 0
- Ducksalad plant response rating (duck salad; [14]): 0
- Ducksalad plant response rating (duck salad; [15]): 0
- Ducksalad plant response rating (duck salad; flood test, listed under Postemergence, Rate 250 g/ha, scale 0 to 10, 0 no effect, 10 complete control): 0
- B. signalgrass plant response rating (surinam grass; [16]): 0
- B. signalgrass plant response rating (surinam grass; [2]): 0
- B. signalgrass plant response rating (surinam grass; [3]): 0
- Plant response rating, B. signalgrass (surinam grass; [4]): 0
- Plant response rating, B. signalgrass (surinam grass; [5]): 3
- B. signalgrass plant response rating (surinam grass; [6]): 5
- B. signalgrass plant response rating (surinam grass; [17]): 0
- B. signalgrass plant response rating (surinam grass; Rate 500 g/ha, Postemergence, scale of 0 to 10 where 0 is no effect and 10 is complete control): 4
- S. Flatsedge plant response rating (smallflower flatsedge; [13]): 0
- S. Flatsedge plant response rating (smallflower flatsedge; [14]): 0
- Plant response rating, S. Flatsedge (smallflower flatsedge; [18]): 0
- S. Flatsedge plant response rating (smallflower flatsedge; [15]): 0
- Bedstraw plant response rating (bedstraw; [16]): 0
- Bedstraw plant response rating (bedstraw; [2]): 7
- Bedstraw plant response rating (bedstraw; [3]): 0
- Plant response rating, Bedstraw (bedstraw; [4]): 0
- Plant response rating, Bedstraw (bedstraw; [5]): 0
- Bedstraw plant response rating (bedstraw; [6]): 0
- Bedstraw plant response rating (bedstraw; [17]): 0
- Giant foxtail plant response rating (giant foxtail; [1]): 7
- Giant foxtail plant response rating (giant foxtail; [2]): 7
- Giant foxtail plant response rating (giant foxtail; [3]): 8
- Plant response rating, Giant foxtail (giant foxtail; [4]): 10
- Plant response rating, Giant foxtail (giant foxtail; [5]): 10
- Giant foxtail plant response rating (giant foxtail; [6]): 10
- Giant foxtail plant response rating (giant foxtail; [7]): 2
- Giant foxtail plant response rating (giant foxtail; [8]): 8
- Crabgrass plant response rating (crabgrass; [1]): 4
- Crabgrass plant response rating (crabgrass; [2]): 4
- Crabgrass plant response rating (crabgrass; [3]): 5
- Plant response rating, Crabgrass (crabgrass; [4]): 6
- Plant response rating, Crabgrass (crabgrass; [5]): 10
- Crabgrass plant response rating (crabgrass; [6]): 10
- Crabgrass plant response rating (crabgrass; [7]): 0
- Crabgrass plant response rating (crabgrass; [8]): 9
- Nutsedge plant response rating (purple nutsedge; [1]): 0
- Nutsedge plant response rating (purple nutsedge; [2]): 0
- Nutsedge plant response rating (purple nutsedge; [3]): 0
- Plant response rating, Nutsedge (purple nutsedge; [4]): 0
- Plant response rating, Nutsedge (purple nutsedge; [5]): 0
- Nutsedge plant response rating (purple nutsedge; [6]): 0
- Nutsedge plant response rating (purple nutsedge; [7]): 0
- Nutsedge plant response rating (purple nutsedge; [8]): 0
- Rice plant response rating (rice; [13]): 0
- Rice plant response rating (rice; [14]): 0
- Plant response rating, Rice (rice; [18]): 0
- Rice plant response rating (rice; [15]): 0
- Corn plant response rating (corn; [1]): 0
- Corn plant response rating (corn; [2]): 0
- Corn plant response rating (corn; [3]): 0
- Plant response rating, Corn (corn; [4]): 0
- Plant response rating, Corn (corn; [5]): 0
- Corn plant response rating (corn; [6]): 2
- Corn plant response rating (corn; [7]): 0
- Corn plant response rating (corn; [8]): 0
- Soybean plant response rating (soybean; [1]): 4
- Soybean plant response rating (soybean; [3]): 0
- Plant response rating, Soybean (soybean; [4]): 0
- Plant response rating, Soybean (soybean; [5]): 0
- Soybean plant response rating (soybean; [6]): 4
- Soybean plant response rating (soybean; [7]): 4
- Plant response rating, Soybean (soybean; [9]): 4
- Soybean plant response rating (soybean; [8]): 7
